{"source": "paper PMC9019904", "about": "“AD Informer Set: Chemical tools to facilitate Alzheimer's disease drug discovery” (Alzheimer's & Dementia : Translational Research & Clinical …, 2022)", "key": {"[1]": {"tested_on": "BV2 (mouse microglia) cell line", "assay": "pHrodo-myelin phagocytosis/cell viability high content imaging assay: viability (cell count, nuclear area, nuclear intensity)", "conditions": "for 1. Cell count (% control) / 2. Nuclear Area (% Control) / 3. Nuclear DNA Intensity (% control): 48 hours treatment", "procedure,_shortened": "(§1)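 BV2 mouse and HMC3 human microglia were treated with compounds at 10 μM for 48 h, with pHrodo-myelin present for the last 20 h. Viability was imaged as total cell count per well and mean nuclear intensity per cell. Values are means of duplicates, normalized to untreated wells as % control.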"}, "[2]": {"tested_on": "HMC3 (human microglia) cell line", "assay": "pHrodo-myelin phagocytosis/cell viability high content imaging assay: viability (cell count, nuclear area, nuclear intensity)", "conditions": "for 1. Cell count (% control) / 2. Nuclear Area (% Control) / 3. Nuclear DNA Intensity (% control): 48 hours treatment", "procedure,_shortened": "as §1"}, "[3]": {"tested_on": "BV2 (mouse microglia) cell line", "assay": "pHrodo-myelin phagocytosis/cell viability high content imaging assay: phagocytosis signal", "format": "cell-based", "procedure,_shortened": "(§2)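 Imaging at high content captured pHrodo-myelin uptake about 22 hours after its addition, alongside a viability read-out from the same cells. Three measurements were derived, with intensity increase marking early apoptosis and decrease marking later apoptosis.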"}, "[4]": {"tested_on": "HMC3 (human microglia) cell line", "assay": "pHrodo-myelin phagocytosis/cell viability high content imaging assay: phagocytosis signal", "format": "cell-based", "procedure,_shortened": "as §2"}, "[5]": {"conditions": "BV2 cells, 10 uM compound, 48 hours treatment, pHrodo-myelin final 20 hours"}, "[6]": {"conditions": "HMC3 cells, 10 uM compound, 48 hours treatment, pHrodo-myelin final 20 hours"}, "[7]": {"conditions": "BV2, compound 10 uM, pHrodo-myelin"}, "[8]": {"conditions": "HMC3, compound 10 uM, pHrodo-myelin"}}, "note": "Where a SMILES comes first, the peptide text is derived from it. [ ]: non-standard residue; d: D form. dHyp = O=C(O)[C@H]1C[C@H](O)CN1", "data": [{"smiles": "CC(C)[C@H](O)C(=O)N[C@@H](C)C(=O)N[C@@H]1C(=O)N(C)CCc2ccccc21", "note": "[UNC10303095A]", "values": [{"measurement": "1. Cell count (% control)", "setting": "[1]; BV2 cells, 10 uM compound", "value": 134.6, "unit": "% control"}, {"measurement": "2. Nuclear Area (% Control)", "setting": "[1]; BV2 cells, 10 uM compound", "value": 102.1, "unit": "% Control"}, {"measurement": "3. Nuclear DNA Intensity (% control)", "setting": "[1]; BV2 cells, 10 uM compound", "value": 104.4, "unit": "% control"}, {"measurement": "1. Cell count (% control)", "setting": "[2]; HMC3 cells, 10 uM compound", "value": 156.2, "unit": "% control"}, {"measurement": "2. Nuclear Area (% Control)", "setting": "[2]; HMC3 cells, 10 uM compound", "value": 97.1, "unit": "% Control"}, {"measurement": "3. Nuclear DNA Intensity (% control)", "setting": "[2]; HMC3 cells, 10 uM compound", "value": 97.3, "unit": "% control"}, {"measurement": "4. Phagocytosis (% control)", "setting": "[3]; [5]", "value": 150.0, "unit": "% control"}, {"measurement": "4. Phagocytosis (% control)", "setting": "[4]; [6]", "value": 70.8, "unit": "% control"}]}, {"smiles": "CN(C)CC1CCOC1(c1ccccc1)c1ccccc1.Cl", "note": "(stereo not shown) [UNC10303096A]", "values": [{"measurement": "1. Cell count (% control)", "setting": "[1]; BV2 cells, 10 uM compound", "value": 103.1, "unit": "% control"}, {"measurement": "2. Nuclear Area (% Control)", "setting": "[1]; BV2 cells, 10 uM compound", "value": 105.3, "unit": "% Control"}, {"measurement": "3. Nuclear DNA Intensity (% control)", "setting": "[1]; BV2 cells, 10 uM compound", "value": 104.2, "unit": "% control"}, {"measurement": "1. Cell count (% control)", "setting": "[2]; HMC3 cells, 10 uM compound", "value": 129.8, "unit": "% control"}, {"measurement": "2. Nuclear Area (% Control)", "setting": "[2]; HMC3 cells, 10 uM compound", "value": 100.5, "unit": "% Control"}, {"measurement": "3. Nuclear DNA Intensity (% control)", "setting": "[2]; HMC3 cells, 10 uM compound", "value": 94.9, "unit": "% control"}, {"measurement": "4. Phagocytosis (% control)", "setting": "[3]; [5]", "value": 256.6, "unit": "% control"}, {"measurement": "4. Phagocytosis (% control)", "setting": "[4]; [6]", "value": 111.9, "unit": "% control"}]}, {"smiles": "CN(C)c1ccc2c(c1)Sc1cc(N(C)C)ccc1N2.CS(=O)(=O)O.CS(=O)(=O)O", "note": "[UNC10303097A, reference compound]", "values": [{"measurement": "cytotoxicity in mouse microglial cells (cell count < 70% control)", "setting": "[1]", "value": "manifested toxicity in both microglial cell lines"}, {"measurement": "1. Cell count (% control)", "setting": "[1]; BV2 cells, 10 uM compound", "value": 14.2, "unit": "% control"}, {"measurement": "2. Nuclear Area (% Control)", "setting": "[1]; BV2 cells, 10 uM compound", "value": 111.0, "unit": "% Control"}, {"measurement": "3. Nuclear DNA Intensity (% control)", "setting": "[1]; BV2 cells, 10 uM compound", "value": 58.9, "unit": "% control"}, {"measurement": "cytotoxicity in human microglial cells (cell count < 70% control)", "setting": "[2]", "value": "manifested toxicity in both microglial cell lines"}, {"measurement": "1. Cell count (% control)", "setting": "[2]; HMC3 cells, 10 uM compound", "value": 59.1, "unit": "% control"}, {"measurement": "2. Nuclear Area (% Control)", "setting": "[2]; HMC3 cells, 10 uM compound", "value": 75.8, "unit": "% Control"}, {"measurement": "3. Nuclear DNA Intensity (% control)", "setting": "[2]; HMC3 cells, 10 uM compound", "value": 120.7, "unit": "% control"}, {"measurement": "4. Phagocytosis (% control)", "setting": "[3]; [5]", "value": 102.3, "unit": "% control"}, {"measurement": "4. Phagocytosis (% control)", "setting": "[4]; [6]", "value": 6.7, "unit": "% control"}]}, {"smiles": "COc1ccc2nc([S+]([O-])Cc3ncc(C)c(OC)c3C)nc-2[nH]1", "note": "(stereo not shown) [UNC10303106A]", "values": [{"measurement": "1. Cell count (% control)", "setting": "[1]; BV2 cells, 10 uM compound", "value": 113.2, "unit": "% control"}, {"measurement": "2. Nuclear Area (% Control)", "setting": "[1]; BV2 cells, 10 uM compound", "value": 104.8, "unit": "% Control"}, {"measurement": "3. Nuclear DNA Intensity (% control)", "setting": "[1]; BV2 cells, 10 uM compound", "value": 103.4, "unit": "% control"}, {"measurement": "1. Cell count (% control)", "setting": "[2]; HMC3 cells, 10 uM compound", "value": 100.3, "unit": "% control"}, {"measurement": "2. Nuclear Area (% Control)", "setting": "[2]; HMC3 cells, 10 uM compound", "value": 105.8, "unit": "% Control"}, {"measurement": "3. Nuclear DNA Intensity (% control)", "setting": "[2]; HMC3 cells, 10 uM compound", "value": 97.2, "unit": "% control"}, {"measurement": "4. Phagocytosis (% control)", "setting": "[3]; [5]", "value": 116.6, "unit": "% control"}, {"measurement": "4. Phagocytosis (% control)", "setting": "[4]; [6]", "value": 91.6, "unit": "% control"}]}, {"smiles": "CN1c2ccc([N+](=O)[O-])cc2N=C(c2ccc(C(=O)O)cc2)c2cc3c(cc21)C(C)(C)CCC3(C)C", "note": "[UNC10303107A]", "values": [{"measurement": "1. Cell count (% control)", "setting": "[1]; BV2 cells, 10 uM compound", "value": 16.8, "unit": "% control"}, {"measurement": "2. Nuclear Area (% Control)", "setting": "[1]; BV2 cells, 10 uM compound", "value": 151.2, "unit": "% Control"}, {"measurement": "3. Nuclear DNA Intensity (% control)", "setting": "[1]; BV2 cells, 10 uM compound", "value": 64.7, "unit": "% control"}, {"measurement": "1. Cell count (% control)", "setting": "[2]; HMC3 cells, 10 uM compound", "value": 75.4, "unit": "% control"}, {"measurement": "2. Nuclear Area (% Control)", "setting": "[2]; HMC3 cells, 10 uM compound", "value": 99.6, "unit": "% Control"}, {"measurement": "3. Nuclear DNA Intensity (% control)", "setting": "[2]; HMC3 cells, 10 uM compound", "value": 105.3, "unit": "% control"}, {"measurement": "4. Phagocytosis (% control)", "setting": "[3]; [5]", "value": 117.4, "unit": "% control"}, {"measurement": "4. Phagocytosis (% control)", "setting": "[4]; [6]", "value": 76.2, "unit": "% control"}]}, {"smiles": "CC(=O)N[C@H](Cc1ccc(O)cc1)C(=O)N1CCC[C@@H]1C(=O)N1C[C@@H](O)C[C@@H]1C(=O)NCC(=O)N[C@H](C)C(=O)NCC(N)=O", "note": "[UNC10303110A] (Ac-[dY][dP][dHyp]G[dA]G-NH2)", "values": [{"measurement": "1. Cell count (% control)", "setting": "[1]; BV2, compound 10 uM", "value": 113.8, "unit": "% control"}, {"measurement": "2. Nuclear Area (% Control)", "setting": "[1]; BV2, compound 10 uM", "value": 106.0, "unit": "% Control"}, {"measurement": "3. Nuclear DNA Intensity (% control)", "setting": "[1]; BV2, compound 10 uM", "value": 97.3, "unit": "% control"}, {"measurement": "1. Cell count (% control)", "setting": "[2]; HMC3, compound 10 uM", "value": 110.1, "unit": "% control"}, {"measurement": "2. Nuclear Area (% Control)", "setting": "[2]; HMC3, compound 10 uM", "value": 103.7, "unit": "% Control"}, {"measurement": "3. Nuclear DNA Intensity (% control)", "setting": "[2]; HMC3, compound 10 uM", "value": 94.9, "unit": "% control"}, {"measurement": "4. Phagocytosis (% control)", "setting": "[3]; [7]", "value": 117.7, "unit": "% control"}, {"measurement": "4. Phagocytosis (% control)", "setting": "[4]; [8]", "value": 73.8, "unit": "% control"}]}, {"smiles": "COC(=O)C1=C(C)NC2=C(C(=O)c3ccccc32)C1c1ccccc1OCc1ccccc1F", "note": "(stereo not shown) [UNC10303111A]", "values": [{"measurement": "1. Cell count (% control)", "setting": "[1]; BV2, compound 10 uM", "value": 84.0, "unit": "% control"}, {"measurement": "2. Nuclear Area (% Control)", "setting": "[1]; BV2, compound 10 uM", "value": 101.6, "unit": "% Control"}, {"measurement": "3. Nuclear DNA Intensity (% control)", "setting": "[1]; BV2, compound 10 uM", "value": 106.1, "unit": "% control"}, {"measurement": "1. Cell count (% control)", "setting": "[2]; HMC3, compound 10 uM", "value": 166.8, "unit": "% control"}, {"measurement": "2. Nuclear Area (% Control)", "setting": "[2]; HMC3, compound 10 uM", "value": 93.9, "unit": "% Control"}, {"measurement": "3. Nuclear DNA Intensity (% control)", "setting": "[2]; HMC3, compound 10 uM", "value": 99.7, "unit": "% control"}, {"measurement": "4. Phagocytosis (% control)", "setting": "[3]; [7]", "value": 307.3, "unit": "% control"}, {"measurement": "4. Phagocytosis (% control)", "setting": "[4]; [8]", "value": 61.6, "unit": "% control"}]}]}
